Experimental data reported in patent US9365576B2, “Pyrrolopyrrolidinone compounds” (Novartis AG, priority 2012, dated 2016).

biological target: human MDM2 protein (amino acids 2-188) (Homo sapiens (Human), UniProt Q00987); assay: TR-FRET assay, p53-MDM2 Assay 2 (modified); type: binding; details: TR-FRET; 0.1 nM MDM2, 0.1 nM Europium labeled streptavidin, Tecan genios Pro reader; read-out: IC50 p53-MDM2 Assay 2
Method in brief: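 Biotinylated human MDM2 (aa 2–188, 1.25 nM) was preincubated 15 min at room temperature with 0.625 nM Eu-streptavidin, then 10 nM Cy5-p53 peptide (aa 18–26) added for 15 min. TR-FRET ratio 665/620 nm (excitation 340 nm) was read; IC50 came from curve fitting.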

Sequence of human MDM2 protein (amino acids 2-188) (Q00987 2-188): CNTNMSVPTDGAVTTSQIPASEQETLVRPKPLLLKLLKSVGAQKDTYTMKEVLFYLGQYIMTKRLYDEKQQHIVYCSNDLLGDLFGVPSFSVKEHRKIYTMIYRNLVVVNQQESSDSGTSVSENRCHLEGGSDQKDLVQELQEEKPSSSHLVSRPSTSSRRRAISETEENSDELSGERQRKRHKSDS

| SMILES | IC50 |
| --- | --- |
| COc1ncc(-c2cc3c(n2C(C)C)[C@@H](c2ccc(Cl)cc2C)N(c2cc(Cl)c(=O)n(C)c2)C3=O)c(OC)n1 [Example 161, (R)-5-(5-Chloro-1-methyl-6-oxo-1,6-dihydro-pyridin-3-yl)-6-(4-chloro-2-methyl-phenyl)-2-(2,4-dimethoxy-pyrimidin-5-yl)-1-isopropyl-5,6-dihydro-1H-pyrrolo[3,4-b]pyrrol-4-one] | 308 nM |
| COc1ncc(-c2cc3c(n2C(C)C)[C@](C)(c2ccc(Cl)cc2)N(c2cc(Cl)c(=O)n(C)c2)C3=O)c(OC)n1 [Example 162, (S)-5-(5-Chloro-1-methyl-6-oxo-1,6-dihydro-pyridin-3-yl)-6-(4-chloro-phenyl)-2-(2,4-dimethoxy-pyrimidin-5-yl)-1-isopropyl-6-methyl-5,6-dihydro-1H-pyrrolo[3,4-b]pyrrol-4-one] | 49 nM |
| COc1ncc(-c2cc3c(n2C(C)C)[C@@](C)(c2ccc(Cl)cc2)N(c2cc(Cl)c(=O)n(C)c2)C3=O)c(OC)n1 [Example 163, (R)-5-(5-Chloro-1-methyl-6-oxo-1,6-dihydro-pyridin-3-yl)-6-(4-chloro-phenyl)-2-(2,4-dimethoxy-pyrimidin-5-yl)-1-isopropyl-6-methyl-5,6-dihydro-1H-pyrrolo[3,4-b]pyrrol-4-one] | 42.7 nM |
| COc1nc(N(C)C)ncc1-c1c(C#N)c2c(n1C(C)C)C(c1ccc(Cl)cc1)N(c1cc(Cl)c(=O)n(C)c1)C2=O (stereo not drawn) [Example 164, 5-(5-Chloro-1-methyl-6-oxo-1,6-dihydro-pyridin-3-yl)-6-(4-chloro-phenyl)-2-(2-dimethylamino-4-methoxy-pyrimidin-5-yl)-1-isopropyl-4-oxo-1,4,5,6-tetrahydro-pyrrolo[3,4-b]pyrrole-3-carbonitrile] | 0.121 nM |
| CNc1ncc(-c2cc3c(n2C(C)C)[C@H](c2ccc(C#N)cc2)N(c2cc(Cl)cn(C)c2=O)C3=O)c(OC)n1 [Example 165, 4-[(S)-5-(5-Chloro-1-methyl-2-oxo-1,2-dihydro-pyridin-3-yl)-1-isopropyl-2-(4-methoxy-2-methylamino-pyrimidin-5-yl)-4-oxo-1,4,5,6-tetrahydro-pyrrolo[3,4-b]pyrrol-6-yl]-benzonitrile] | 0.578 nM |
| CNc1ncc(-c2cc3c(n2C(C)C)[C@@H](c2ccc(C#N)cc2)N(c2cc(Cl)cn(C)c2=O)C3=O)c(OC)n1 [Example 166, 4-[(R)-5-(5-Chloro-1-methyl-2-oxo-1,2-dihydro-pyridin-3-yl)-1-isopropyl-2-(4-methoxy-2-methylamino-pyrimidin-5-yl)-4-oxo-1,4,5,6-tetrahydro-pyrrolo[3,4-b]pyrrol-6-yl]-benzonitrile] | 293 nM |
| COc1nc(N(C)C)ncc1-c1cc2c(n1C(C)C)[C@@H](c1ccc(C#N)cc1)N(c1cc(Cl)c[nH]c1=O)C2=O [Example 168, 4-[(R)-5-(5-Chloro-2-oxo-1,2-dihydro-pyridin-3-yl)-2-(2-dimethylamino-4-methoxy-pyrimidin-5-yl)-1-isopropyl-4-oxo-1,4,5,6-tetrahydro-pyrrolo[3,4-b]pyrrol-6-yl]-benzonitrile] | 107 nM |
| COc1nc(N(C)C)ncc1-c1cc2c(n1C(C)C)[C@H](c1ccc(C#N)cc1)N(c1ccc(F)c(Cl)c1)C2=O [Example 169, 4-[(S)-5-(3-Chloro-4-fluoro-phenyl)-2-(2-dimethylamino-4-methoxy-pyrimidin-5-yl)-1-isopropyl-4-oxo-1,4,5,6-tetrahydro-pyrrolo[3,4-b]pyrrol-6-yl]-benzonitrile] | 0.357 nM |
| COc1nc(N(C)C)ncc1-c1cc2c(n1C(C)C)[C@@H](c1ccc(C#N)cc1)N(c1ccc(F)c(Cl)c1)C2=O [Example 170, 4-[(R)-5-(3-Chloro-4-fluoro-phenyl)-2-(2-dimethylamino-4-methoxy-pyrimidin-5-yl)-1-isopropyl-4-oxo-1,4,5,6-tetrahydro-pyrrolo[3,4-b]pyrrol-6-yl]-benzonitrile] | 31.3 nM |
| COc1nc(N)ncc1-c1cc2c(n1C(C)C)[C@H](c1ccc(C#N)cc1)N(c1ccc(F)c(Cl)c1)C2=O [Example 171, 4-[(S)-2-(2-Amino-4-methoxy-pyrimidin-5-yl)-5-(3-chloro-4-fluoro-phenyl)-1-isopropyl-4-oxo-1,4,5,6-tetrahydro-pyrrolo[3,4-b]pyrrol-6-yl]-benzonitrile] | 0.699 nM |
| COc1nc(N)ncc1-c1cc2c(n1C(C)C)[C@@H](c1ccc(C#N)cc1)N(c1ccc(F)c(Cl)c1)C2=O [Example 172, 4-[(R)-2-(2-Amino-4-methoxy-pyrimidin-5-yl)-5-(3-chloro-4-fluoro-phenyl)-1-isopropyl-4-oxo-1,4,5,6-tetrahydro-pyrrolo[3,4-b]pyrrol-6-yl]-benzonitrile] | 115 nM |
| COc1ncc(-c2cc3c(n2C(C)C)C(c2ccc(C#N)cc2)N([C@H]2CC[C@H](O)CC2)C3=O)c(OC)n1 (stereo partly drawn) [Example 173, 4-[2-(2,4-Dimethoxy-pyrimidin-5-yl)-5-(trans-4-hydroxy-cyclohexyl)-1-isopropyl-4-oxo-1,4,5,6-tetrahydro-pyrrolo[3,4-b]pyrrol-6-yl]-benzonitrile] | 13.6 nM |
| COc1nc(N(C)C)ncc1-c1cc2c(n1C(C)C)C(c1ccc(C#N)cc1)N([C@H]1CC[C@H](O)CC1)C2=O (stereo partly drawn) [Example 174, 4-[2-(2-Dimethylamino-4-methoxy-pyrimidin-5-yl)-5-(trans-4-hydroxy-cyclohexyl)-1-isopropyl-4-oxo-1,4,5,6-tetrahydro-pyrrolo[3,4-b]pyrrol-6-yl]-benzonitrile] | 1.67 nM |
| COc1nc(N)ncc1-c1cc2c(n1C(C)C)C(c1ccc(Cl)cc1)N(c1cc(C)nn1C)C2=O (stereo not drawn) [Example 175, 2-(2-Amino-4-methoxy-pyrimidin-5-yl)-6-(4-chloro-phenyl)-5-(2,5-dimethyl-2H-pyrazol-3-yl)-1-isopropyl-5,6-dihydro-1H-pyrrolo[3,4-b]pyrrol-4-one] | 3.72 nM |
| COc1ncc(-c2cc3c(n2C(C)C)C(c2ccc(Cl)cc2)N(c2cc(C)nn2C)C3=O)c(OC)n1 (stereo not drawn) [Example 176, 6-(4-Chloro-phenyl)-2-(2,4-dimethoxy-pyrimidin-5-yl)-5-(2,5-dimethyl-2H-pyrazol-3-yl)-1-isopropyl-5,6-dihydro-1H-pyrrolo[3,4-b]pyrrol-4-one] | 0.87 nM |
| COc1nc(N(C)C)ncc1-c1cc2c(n1C(C)C)C(c1ccc(Cl)cc1)N(c1cc(C)nn1C)C2=O (stereo not drawn) [Example 177, 6-(4-Chloro-phenyl)-2-(2-dimethylamino-4-methoxy-pyrimidin-5-yl)-5-(2,5-dimethyl-2H-pyrazol-3-yl)-1-isopropyl-5,6-dihydro-1H-pyrrolo[3,4-b]pyrrol-4-one] | 0.514 nM |
| COc1cn(C)c(=O)cc1-c1cc2c(n1C(C)C)C(c1ccc(Cl)cc1)N(c1cc(C)nn1C)C2=O (stereo not drawn) [Example 178, 6-(4-Chloro-phenyl)-5-(2,5-dimethyl-2H-pyrazol-3-yl)-1-isopropyl-2-(5-methoxy-1-methyl-2-oxo-1,2-dihydro-pyridin-4-yl)-5,6-dihydro-1H-pyrrolo[3,4-b]pyrrol-4-one] | 1.07 nM |
| COc1ncc(-c2cc3c(n2C(C)C)C(c2ccc(C#N)cc2)N(c2cc(C)nn2C)C3=O)c(OC)n1 (stereo not drawn) [Example 179, 4-[2-(2,4-Dimethoxy-pyrimidin-5-yl)-5-(2,5-dimethyl-2H-pyrazol-3-yl)-1-isopropyl-4-oxo-1,4,5,6-tetrahydro-pyrrolo[3,4-b]pyrrol-6-yl]-benzonitrile] | 3.46 nM |
